Data reported in a compilation of properties of binary mixtures (doi:10.1016/j.molliq.2021.116359).

Assay: xn = mol fraction of the nth substance listed
Conditions: 101.3 kPa, x1 = 0.2

CCCC[N+](CCCC)(CCCC)CCCC.O=S(=O)([O-])O + CCCCCCCCCO
Conditions | electrical conductivity [S/m] | speed of sound [m/s] | viscosity [mPa·s]
298.15 K | 0.0037 | 1411.5 | 137.2
303.15 K | 0.005 | 1395 | 107.9
318.15 K | 0.0102 | 1346.7 | 51.9
323.15 K | 0.0123 | 1331.1 | 41.9
328.15 K | 0.0146 | 1315.7 | 33.79
333.15 K | 0.018 | 1300.3 | 27.74
